Laboratory results taken from patent publication US20070149485A1, “SELECTED DOSAGE FOR THE TREATMENT OF CARDIOVASCULAR AND RELATED PATHOLOGIES” (Medicure International, Inc., priority 2005, published 2007).

System: high-risk patients undergoing CABG surgery with cardiopulmonary bypass
Test: Intravenous P5P in high-risk patients undergoing CABG surgery (Example 2, protocol of Example 1 repeated)
Format: in vivo, human
Conditions: CK-MB cut-off 100 ng/ml
Method: The randomized, double-blind placebo-controlled, dose-ranging, parallel-arm multi-center study on high-risk patients undergoing CABG surgery with cardiopulmonary bypass of Experiment 1 is repeated using a protocol as described in Experiment 1, with the difference that the placebo/drug is administered intravenously, in an intravenous dose pharmacokinetically approximating the dosage given enterally in Experiment 1.
Approximately 3000 high-risk pre-CABG patients are screened and randomized to […], prior to their bypass surgery, as follows. Patients are either placed in a control group (placebo), treated intravenously with 5.00 mg/day of P5P, or treated intravenously with 23.33 mg/day of P5P.
Patients are identified as “high risk” if they had two or more of the following risk factors:
• Age greater than 65 years; • Current smoker; • History of diabetes mellitus requiring treatment other than diet; • Evidence of left ventricular dysfunction or congestive heart failure; • History of a previous non-disabling stroke, transient ischemic attack, or carotid endarterectomy; • Urgent CABG intervention defined as the need to stay in the hospital (although the patient may be operated on within a normal scheduling routine); • History of myocardial infarction that occurred more than 48 hours but less than 6 weeks prior to CABG surgery; • Prior peripheral artery surgery or angioplasty; • Moderate renal dysfunction defined as creatinine>133 μmol/L (1.5 mg/dl), but <250 μmol/L (2.8 mg/dl); and • Presence of at least one asymptomatic carotid artery stenosis (>50%) either in one or two carotid arteries.
The first dose of study medication is administered at 3-10 hours prior to CABG surgery. In the event of surgery delay or rescheduling, a second pre-operative dose of P5P is administered so that all patients receive study medication 3-10 hours before surgery. Treatment continues for 30 days after surgery (post operative day (POD) 30). Patients receive follow-up evaluations up to and including postoperative day on POD 30 and on POD 90.
Patients are measured for combined incidence of cardiovascular death and nonfatal myocardial infarction (MI) up to and including post-operative day 30 (POD 30). Patients are also measured for nonfatal myocardial infarction alone.
All deaths without an identifiable non-cardiovascular cause are considered of cardiovascular origin.
Cerebral infarction (stroke) is defined clinically as any new sudden onset focal neurological deficit lasting at least 24 hours as assessed by a neurologist and after neuroimaging (computed tomography [CT] brain scan or magnetic resonance imaging [MRI]) excludes an intracerebral hemorrhage. […]

Cc1ncc(COP(=O)(O)O)c(C=O)c1O [P5P, 3-hydroxy-2-methyl-5-[(phosphonooxy)methyl]-4-pyridine-carboxaldehyde]
highly effective: reducing instances of myocardial infarction (intravenous 5.00 mg/day) | reducing total incidents (myocardial infarction, cerebral infarction, or death) (intravenous 5.00 mg/day, better than 23.33 mg/day) | reducing instances of myocardial infarction (intravenous 23.33 mg/day) | reducing total incidents (myocardial infarction, cerebral infarction, or death) (intravenous 23.33 mg/day)
